Data: patent US20250073340A1, “SPIROCYCLIC MDM2 MODULATOR AND USES THEREOF” (Newave Pharmaceutical Inc., priority 2021, published 2025)

How the values were obtained:
MDM2 = MDM2 (Homo sapiens (Human), UniProt Q00987); assay: In vitro MDM2 HTRF assay (inhibition of p53-MDM2 interaction); format: binding; conditions: GST-MDM2 / biotinylated p53 peptide
[1] = system: BCL-2-dependent acute lymphoblastic leukemia (ALL) cell line RS4;11 overexpressing Bcl-2 G101V; assay: cells; format: cell-based; conditions: Homo sapiens, RS4-11; about 72 hours, ATPlite luminescence; read-out: RS4;11-G101V IC50
Protocol: Biological Example 2: In vitro Anti-proliferation Assay in BCL-2-dependent acute lymphoblastic leukemia (ALL) cell line RS4; 11 overexpressing Bcl-2 G101V
Cell antiproliferation was assayed by PerkinElmer ATPlite™ Luminescence Assay System. Briefly, the various test cancer cell lines were plated at a density of about 1×10^4 cells per well in Costar 96-well plates, and were incubated with different concentrations of compounds for about 72 hours in medium supplemented with 5% FBS or 10% normal human serum (NHS). One lyophilized substrate solution vial was then reconstituted by adding 5 mL of substrate buffer solution, and was agitated gently until the solution was homogeneous. About 50 μL of mammalian cell lysis solution was added to 100 μL of cell suspension per well of a microplate, and the plate was shaken for about five minutes in an orbital shaker at −700 rpm. This procedure was used to lyse the cells and to stabilize the ATP. Next, 50 μL substrate solution was added to the wells and microplate was shaken for five minutes in an orbital shaker at −700 rpm. Finally, the luminescence was measured by a PerkinElmer TopCount® Microplate Scintillation Counter. Such assays, carried out with a range of doses of test compounds, allowed the determination of the cellular anti-antiproliferative IC50 of the compounds of the present invention.

Chain of MDM2 (Q00987 whole entry): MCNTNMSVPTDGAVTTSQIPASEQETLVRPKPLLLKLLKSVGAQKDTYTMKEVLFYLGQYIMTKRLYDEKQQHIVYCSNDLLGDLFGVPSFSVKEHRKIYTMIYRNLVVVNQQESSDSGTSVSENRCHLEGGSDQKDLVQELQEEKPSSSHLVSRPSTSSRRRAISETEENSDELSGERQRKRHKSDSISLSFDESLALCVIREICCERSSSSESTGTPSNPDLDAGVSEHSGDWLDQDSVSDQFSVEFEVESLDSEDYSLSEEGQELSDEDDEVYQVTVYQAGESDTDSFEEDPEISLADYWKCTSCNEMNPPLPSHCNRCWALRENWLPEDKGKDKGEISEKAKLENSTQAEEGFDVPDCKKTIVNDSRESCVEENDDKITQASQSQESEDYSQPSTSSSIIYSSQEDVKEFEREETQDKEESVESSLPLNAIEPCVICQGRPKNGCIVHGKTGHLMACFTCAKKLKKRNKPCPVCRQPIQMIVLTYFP

| IC50 (MDM2) [nM] | IC50 [1] [nM] | SMILES |
| --- | --- | --- |
| 1.54 | 10.1 | COc1cc(C(=O)NCCCC#Cc2cccc3c2CN(C2CCC(=O)NC2=O)C3=O)ccc1NC(=O)[C@@H]1N[C@@H](CC(C)(C)C)[C@@]2(CNc3cc(Cl)ccc32)[C@H]1c1cccc(Cl)c1F (stereo partly drawn) [Example 16, (2′S,3S,4′S,5′R)-6-chloro-4′-(3-chloro-2-fluorophenyl)-N-(4-((5-(2-(2,6-dioxopiperidin-3-yl)-1-oxoisoindolin-4-yl)pent-4-yn-1-yl)carbamoyl)-2-methoxyphenyl)-2′-neopentylspiro[indoline-3,3′-pyrrolidine]-5′-carboxamide] |
| 1.36 | 3.82 | COc1cc(C(=O)NCCCC#Cc2cccc3c2CN([C@@H]2CCC(=O)NC2=O)C3=O)ccc1NC(=O)[C@@H]1N[C@@H](CC(C)(C)C)[C@@]2(CNc3cc(Cl)ccc32)[C@H]1c1cccc(Cl)c1F [Example 17, (2′S,3S,4′S,5′R)-6-chloro-4′-(3-chloro-2-fluorophenyl)-N-(4-((5-(2-((R)-2,6-dioxopiperidin-3-yl)-1-oxoisoindolin-4-yl)pent-4-yn-1-yl)carbamoyl)-2-methoxyphenyl)-2′-neopentylspiro[indoline-3,3′-pyrrolidine]-5′-carboxamide] |
| 1.3 | 5.91 | COc1cc(C(=O)NCCCC#Cc2cccc3c2CN([C@H]2CCC(=O)NC2=O)C3=O)ccc1NC(=O)[C@@H]1N[C@@H](CC(C)(C)C)[C@@]2(CNc3cc(Cl)ccc32)[C@H]1c1cccc(Cl)c1F [Example 18, (2′S,3S,4′S,5′R)-6-chloro-4′-(3-chloro-2-fluorophenyl)-N-(4-((5-(2-((S)-2,6-dioxopiperidin-3-yl)-1-oxoisoindolin-4-yl)pent-4-yn-1-yl)carbamoyl)-2-methoxyphenyl)-2′-neopentylspiro[indoline-3,3′-pyrrolidine]-5′-carboxamide] |
| 3.67 | 31.9 | COc1cc(C(=O)N2CCC(C#Cc3cccc4c3CN(C3CCC(=O)NC3=O)C4=O)CC2)ccc1NC(=O)[C@@H]1N[C@@H](CC(C)(C)C)[C@@]2(CNc3cc(Cl)ccc32)[C@H]1c1cccc(Cl)c1F (stereo partly drawn) [Example 20, (2′S,3S,4′S,5′R)-6-chloro-4′-(3-chloro-2-fluorophenyl)-2′-(2,2-dimethylpropyl)-N-[4-(4-{2-[2-(2,6-dioxopiperidin-3-yl)-1-oxo-3H-isoindol-4-yl]ethynyl}piperidine-1-carbonyl)-2-methoxyphenyl]-1,2-dihydrospiro[indole-3,3′-pyrrolidine]-5′-carboxamide] |
| 3.45 | 448 | COc1cc(C(=O)NC23CC(C#Cc4cccc5c4CN(C4CCC(=O)NC4=O)C5=O)(C2)C3)ccc1NC(=O)[C@@H]1N[C@@H](CC(C)(C)C)[C@@]2(CNc3cc(Cl)ccc32)[C@H]1c1cccc(Cl)c1F (stereo partly drawn) [Example 21, (2′S,3S,4′S,5′R)-6-chloro-4′-(3-chloro-2-fluorophenyl)-2′-(2,2-dimethylpropyl)-N-{4-[(3-{2-[2-(2,6-dioxopiperidin-3-yl)-1-oxo-3H-isoindol-4-yl]ethynyl}bicyclo[1.1.1]pentan-1-yl)carbamoyl]-2-methoxyphenyl}-1,2-dihydrospiro[indole-3,3′-pyrrolidine]-5′-carboxamide] |
| 272 | > 1000 | COc1cc(N2CCC3(CC2)CC([C@@H]2C[C@H]2C#Cc2cccc4c2CN(C2CCC(=O)NC2=O)C4=O)C3)ccc1NC(=O)[C@@H]1N[C@@H](CC(C)(C)C)[C@@]2(CNc3cc(Cl)ccc32)[C@H]1c1cccc(Cl)c1F (stereo partly drawn) [Example 22, (2′S,3S,4′S,5′R)-6-chloro-4′-(3-chloro-2-fluorophenyl)-N-(4-(2-((1S,2R)-2-((2-(2,6-dioxopiperidin-3-yl)-1-oxoisoindolin-4-yl)ethynyl)cyclopropyl)-7-azaspiro[3.5]nonan-7-yl)-2-methoxyphenyl)-2′-neopentylspiro[indoline-3,3′-pyrrolidine]-5′-carboxamide] |
| 169 | > 1000 | COc1cc(N2CCC3(CC2)CC([C@H]2C[C@@H]2C#Cc2cccc4c2CN(C2CCC(=O)NC2=O)C4=O)C3)ccc1NC(=O)[C@@H]1N[C@@H](CC(C)(C)C)[C@@]2(CNc3cc(Cl)ccc32)[C@H]1c1cccc(Cl)c1F (stereo partly drawn) [Example 23, (2′S,3S,4′S,5′R)-6-chloro-4′-(3-chloro-2-fluorophenyl)-N-(4-(2-((1R,2S)-2-((2-(2,6-dioxopiperidin-3-yl)-1-oxoisoindolin-4-yl)ethynyl)cyclopropyl)-7-azaspiro[3.5]nonan-7-yl)-2-methoxyphenyl)-2′-neopentylspiro[indoline-3,3′-pyrrolidine]-5′-carboxamide] |
| 2.97 | 21.1 | COc1cc(C(=O)N2CCC[C@H](CC#Cc3cccc4c3CN(C3CCC(=O)NC3=O)C4=O)C2)ccc1NC(=O)[C@@H]1N[C@@H](CC(C)(C)C)[C@@]2(CNc3cc(Cl)ccc32)[C@H]1c1cccc(Cl)c1F (stereo partly drawn) [Example 24, (2′S,3S,4′S,5′R)-6-chloro-4′-(3-chloro-2-fluorophenyl)-N-(4-((3R)-3-(3-(2-(2,6-dioxopiperidin-3-yl)-1-oxoisoindolin-4-yl)prop-2-yn-1-yl)piperidine-1-carbonyl)-2-methoxyphenyl)-2′-neopentylspiro[indoline-3,3′-pyrrolidine]-5′-carboxamide] |
| 3.72 | 21.6 | COc1cc(C(=O)N2CCC[C@@H](CC#Cc3cccc4c3CN(C3CCC(=O)NC3=O)C4=O)C2)ccc1NC(=O)[C@@H]1N[C@@H](CC(C)(C)C)[C@@]2(CNc3cc(Cl)ccc32)[C@H]1c1cccc(Cl)c1F (stereo partly drawn) [Example 25, (2′S,3S,4′S,5′R)-6-chloro-4′-(3-chloro-2-fluorophenyl)-N-(4-((3S)-3-(3-(2-(2,6-dioxopiperidin-3-yl)-1-oxoisoindolin-4-yl)prop-2-yn-1-yl)piperidine-1-carbonyl)-2-methoxyphenyl)-2′-neopentylspiro[indoline-3,3′-pyrrolidine]-5′-carboxamide] |
| 46.8 | 448 | COc1cc(N2CCC([C@@H]3C[C@H]3C#Cc3cccc4c3CN(C3CCC(=O)NC3=O)C4=O)CC2)ccc1NC(=O)[C@@H]1N[C@@H](CC(C)(C)C)[C@@]2(CNc3cc(Cl)ccc32)[C@H]1c1cccc(Cl)c1F (stereo partly drawn) [Example 26, (2′S,3S,4′S,5′R)-6-chloro-4′-(3-chloro-2-fluorophenyl)-2′-(2,2-dimethylpropyl)-N-(4-{4-[(1S,2R)-2-{2-[2-(2,6-dioxopiperidin-3-yl)-1-oxo-3H-isoindol-4-yl]ethynyl}cyclopropyl]piperidin-1-yl}-2-methoxyphenyl)-1,2-dihydrospiro[indole-3,3′-pyrrolidine]-5′-carboxamide] |
| 16.5 | > 1000 | COc1cc(N2CCC([C@H]3C[C@@H]3C#Cc3cccc4c3CN(C3CCC(=O)NC3=O)C4=O)CC2)ccc1NC(=O)[C@@H]1N[C@@H](CC(C)(C)C)[C@@]2(CNc3cc(Cl)ccc32)[C@H]1c1cccc(Cl)c1F (stereo partly drawn) [Example 27, (2′S,3S,4′S,5′R)-6-chloro-4′-(3-chloro-2-fluorophenyl)-2′-(2,2-dimethylpropyl)-N-(4-{4-[(1R,2S)-2-{2-[2-(2,6-dioxopiperidin-3-yl)-1-oxo-3H-isoindol-4-yl]ethynyl}cyclopropyl]piperidin-1-yl}-2-methoxyphenyl)-1,2-dihydrospiro[indole-3,3′-pyrrolidine]-5′-carboxamide] |
| 2.59 | 83.2 | COc1cc(C(=O)N[C@H]2CCC[C@@H](C#Cc3cccc4c3CN(C3CCC(=O)NC3=O)C4=O)C2)ccc1NC(=O)[C@@H]1N[C@@H](CC(C)(C)C)[C@@]2(CNc3cc(Cl)ccc32)[C@H]1c1cccc(Cl)c1F (stereo partly drawn) [Example 32, (2′S,3S,4′S,5′R)-6-chloro-4′-(3-chloro-2-fluorophenyl)-2′-(2,2-dimethylpropyl)-N-(4-{[(1S,3R)-3-{2-[2-(2,6-dioxopiperidin-3-yl)-1-oxo-3H-isoindol-4-yl]ethynyl}cyclohexyl]carbamoyl}-2-methoxyphenyl)-1,2-dihydrospiro[indole-3,3′-pyrrolidine]-5′-carboxamide] |
| 2.29 | 104 | COc1cc(C(=O)N[C@@H]2CCC[C@H](C#Cc3cccc4c3CN(C3CCC(=O)NC3=O)C4=O)C2)ccc1NC(=O)[C@@H]1N[C@@H](CC(C)(C)C)[C@@]2(CNc3cc(Cl)ccc32)[C@H]1c1cccc(Cl)c1F (stereo partly drawn) [Example 33, (2′S,3S,4′S,5′R)-6-chloro-4′-(3-chloro-2-fluorophenyl)-2′-(2,2-dimethylpropyl)-N-(4-{[(1R,3S)-3-{2-[2-(2,6-dioxopiperidin-3-yl)-1-oxo-3H-isoindol-4-yl]ethynyl}cyclohexyl]carbamoyl}-2-methoxyphenyl)-1,2-dihydrospiro[indole-3,3′-pyrrolidine]-5′-carboxamide] |
| 2 | 122 | COc1cc(C(=O)N[C@@H]2CCC[C@@H](C#Cc3cccc4c3CN(C3CCC(=O)NC3=O)C4=O)C2)ccc1NC(=O)[C@@H]1N[C@@H](CC(C)(C)C)[C@@]2(CNc3cc(Cl)ccc32)[C@H]1c1cccc(Cl)c1F (stereo partly drawn) [Example 34, (2′S,3S,4′S,5′R)-6-chloro-4′-(3-chloro-2-fluorophenyl)-2′-(2,2-dimethylpropyl)-N-(4-{[(1R,3R)-3-{2-[2-(2,6-dioxopiperidin-3-yl)-1-oxo-3H-isoindol-4-yl]ethynyl}cyclohexyl]carbamoyl}-2-methoxyphenyl)-1,2-dihydrospiro[indole-3,3′-pyrrolidine]-5′-carboxamide] |
